# Source: US20040163143A1, “Method for efficiently producing transgenic plant using auxin precursor” (NIPPON PAPER INDUSTRIES CO., LTD., priority 2002, published 2004)
# How the values were obtained:
# [1] = tested on: populus hybrid strain Y63 stem sections; test: populus hybrid gene introduction test, vector pIAH6, adventitious bud redifferentiation and multiple bud observation; format: cell-based, Populus sieboldii×Populus grandidentata; settings: for B Adventitious bud differentiated (number of sections): 10 sections tested; for B/A Redifferentiation ratio / C/A Gene introduction ratio / C/B Selection efficiency: section basis; for number of redifferentiated adventitious buds into which the desired gene was introduced / total number of adventitious buds redifferentiated: bud basis; for C GUS + adventitious bud differentiated (number of sections): sections with bud judged as a multiple bud after culturing for 4 months
# Method: A transformant was produced by carrying out gene introduction into a populus hybrid (Populus sieboldii×Populus grandidentata) by the method of the present invention using the pIAH6 used in Example 1 as the vector. A stem of an aseptic seedling of a populus hybrid strain […] That is, the pIAH6-introduced A. tumefaciens LBA4404 obtained in the same manner as in Example 1 was cultured overnight in the YEB liquid medium and then diluted to OD630=0.5 with Y basal medium, and the stem sections prepared in the above were soaked in this cell suspension. Next, each of these sections after removing excess cell suspension was co-cultured with Agrobacterium on an agar medium (agar 8 g/l) prepared by adding 40 mg/l acetosyringone to the Y basal medium, at 25° C. for 3 days in the dark to thereby be infect with the pIAH6-introduced Agrobacterium. In this case, a modified MS medium (10 mM NH4, 30 mM NO3) was supplemented with 20 g/l sucrose and used as the Y basal medium. The sections after infection culturing were put on the Y basal agar medium (agar 8 g/l) supplemented with 500 mg/l ticarcillin and 1 μM, 5 μM or 30 μM of an auxin precursor analogue NAM, followed by culturing at 25° C. under light conditions of 30 to 40 μmol/m^2/s in light intensity. […] That is, since the ipt gene is not introduced into the escape, the adventitious bud was redifferentiated by mere influence of a desired gene-introduced cell which was present adjacent thereto.
# [2] = tested on: stem sections of a high rooting clone of E. globulus; test: gene introduction test on high rooting clone of E. globulus, vector pIAH6, GUS staining; format: cell-based, Eucalyptus globulus; settings: NAM 1 μM
# Method: Definite buds of a high rooting clone of E. globulus from Chile were aseptically grown using a medium prepared by adding 0.5 mg/l zeatin to the Y basal medium of Example 2, and the elongated stems were cut into sections of 5 mm to be used as samples for gene introduction and infected with the plasmid pIAH6-introduced Agrobacterium in the same manner as in Example 1. The sections after infection culturing were put on an EG basal agar medium (agar 8.5 g/l) supplemented with 500 mg/l ticarcillin and 1 μM of an auxin precursor analogue NAM, and the culturing was continued at 25° C. under light conditions of 30 to 40 μmol/m^2/s in light intensity while sub-culturing at an interval of 2 weeks using the same medium. Four months after the Agrobacterium infection, the redifferentiated adventitious buds were subjected to a GUS staining test in accordance with the above method of Jefferson et al., and the degree of formation of desired gene-introduced adventitious buds was judged.
# [3] = tested on: E. globulus hypocotyl sections; test: E. globulus gene introduction test, vector pIPT10 (ipt only + GUS), adventitious bud redifferentiation and GUS staining; format: cell-based, Eucalyptus globulus; settings: for B/A Redifferentiation ratio / C/A Gene introduction ratio / C/B Selection efficiency: section basis
# Method: Seeds of E. globulus from Chile were sterilized by soaking in 70% ethanol for about 1 minute and then soaking with stirring in a 2% aqueous sodium hypochlorite solution for about 4 hours, washed thoroughly with sterile water, inoculated on an MS agar medium to which 0.5 mg/l zeatin had been added and stored in a refrigerator at 4° C. for 2 days to accelerate germination, and then the germination was carried out by culturing at 25° C. under light conditions of about 10 μmol/m^2/s in light intensity. One to two weeks after the inoculation of the seeds onto the germination medium, hypocotyls were collected by cutting out apical buds, cotyledons and roots of the germinated seedlings, and the hypocotyls were cut into sections of about 5 mm to be used as samples for gene introduction and subjected to the following test. A. tumefaciens EHA105 introduced with the plasmid pIAH6 in the above item I was cultured overnight in the YEB liquid medium and then diluted to OD630 =0.5 with EG basal medium, and the sections of hypocotyl prepared in the above were soaked in the cell suspension. Next, each of the sections after removing excess cell suspension was co-cultured with Agrobacterium on an agar medium (agar 8.5 g/l) prepared by adding 1.0 mg/l zeatin, 0.05 mg/l NAA and 40 mg/l acetosyringone to the EG basal medium, at 25° C. for 3 days in the dark to thereby infect each section with the pIAH6-introduced Agrobacterium. In this case, a modified MS medium having an ammonia nitrogen/nitrate nitrogen concentration ratio of 1:3 (5 mM NH4, 15 mM NO3) was supplemented with 20 g/l sucrose and used as the EG basal medium. The sections after infection culturing were put on an EG basal agar medium (agar 8.5 g/l) supplemented with 500 mg/l ticarcillin and 1 μM or 10 μM of an auxin precursor analogue NAM, and the culturing was continued at 25° C. under light conditions of 30 to 40 μmol/m^2/s in light intensity while sub-culturing at an interval of 2 weeks using the same medium. Among these sections, the quicker ones redifferentiated adventitious buds after about 2 months of the Agrobacterium infection. Three months after the Agrobacterium infection, in order to examine expression of the GUS gene used as a model of the desired gene, the redifferentiated adventitious buds were subjected to a GUS staining test in accordance with the method of Jefferson et al. (Plant Mol. Biol. Rep., 5: 387-405 (1987)), and the degree of formation of desired gene-introduced adventitious buds was judged by examining the number of stained adventitious buds (the number of adventitious buds expressing the desired gene). An E. globulus gene introduction test was carried out in the same manner as in Example 1, except that the hypocotyl sections after the Agrobacterium infection were cultured using the EG basal agar medium (agar 8.5 g/l) supplemented with 500 mg/l ticarcillin and 0 μM, 1 μM or 10 μM NAA as auxin. An E. globulus gene introduction test was carried out in the same manner as in Example 1 or Comparative Example 1, except that a plasmid pIPT10 having only the ipt gene as the selectable marker gene was used as the vector. Also, the vector also has the GUS gene as a model of the desired gene. Structure of T-DNA region of the pIPT10 used in this case is shown in FIG. 2, and results of the gene introduction test are shown in Table 3.
smiles,measurement,setting,value
"NC(=O)Cc1cccc2ccccc12 [NAM, naphthaleneacetic acid amide]",B Adventitious bud differentiated (number of sections),[1]; NAM 1 μM in medium,7 number of sections
same,B/A Redifferentiation ratio,[1]; NAM 1 μM in medium,70.0%
same,C/A Gene introduction ratio,[1]; NAM 1 μM in medium,50.0%
same,C/B Selection efficiency,[1]; NAM 1 μM in medium,71.4%
same,number of redifferentiated adventitious buds into which the desired gene was introduced,[1]; NAM 1 μM,6
same,total number of adventitious buds redifferentiated,[1]; NAM 1 μM,67
same,C GUS + adventitious bud differentiated (number of sections),[1]; NAM 1 μM,5 number of sections
same,B Adventitious bud differentiated (number of sections),[1]; NAM 5 μM in medium,6 number of sections
same,B/A Redifferentiation ratio,[1]; NAM 5 μM in medium,60.0%
same,C/A Gene introduction ratio,[1]; NAM 5 μM in medium,40.0%
same,C/B Selection efficiency,[1]; NAM 5 μM in medium,66.7%
same,number of redifferentiated adventitious buds into which the desired gene was introduced,[1]; NAM 5 μM,5
same,total number of adventitious buds redifferentiated,[1]; NAM 5 μM,34
same,C GUS + adventitious bud differentiated (number of sections),[1]; NAM 5 μM,4 number of sections
same,B Adventitious bud differentiated (number of sections),[1]; NAM 30 μM in medium,0 number of sections
same,B/A Redifferentiation ratio,[1]; NAM 30 μM in medium,0%
same,C/A Gene introduction ratio,[1]; NAM 30 μM in medium,0%
same,C/B Selection efficiency,[1]; NAM 30 μM in medium,0%
same,C GUS + adventitious bud differentiated (number of sections),[1]; NAM 30 μM,0 number of sections
same,sections whose buds had the desired gene introduced (GUS staining),[2]; among 40 stem sections,3 sections
same,sections from which adventitious buds were differentiated,"[2]; among 40 stem sections, 4 months after infection",5 sections
same,gene introduction ratio into adventitious buds,[2]; section basis,7.5%
same,redifferentiation ratio of adventitious buds,[2]; section basis,12.5%
same,selection efficiency,[2]; section basis,60.0%
same,B Adventitious bud differentiated (number of sections),[3]; additive 1 μM in medium,2 number of sections
same,C GUS + adventitious bud differentiated (number of sections),[3]; additive 1 μM in medium,0 number of sections
same,B/A Redifferentiation ratio,[3]; additive 1 μM in medium,4.4%
same,C/A Gene introduction ratio,[3]; additive 1 μM in medium,0.0%
same,C/B Selection efficiency,[3]; additive 1 μM in medium,0%
same,B Adventitious bud differentiated (number of sections),[3]; additive 10 μM in medium,0 number of sections
same,C GUS + adventitious bud differentiated (number of sections),[3]; additive 10 μM in medium,0 number of sections
same,B/A Redifferentiation ratio,[3]; additive 10 μM in medium,0%
same,C/A Gene introduction ratio,[3]; additive 10 μM in medium,0.0%
same,C/B Selection efficiency,[3]; additive 10 μM in medium,0%
